# PubChem BioAssay (NCI)
# Where “and” joins values, the source holds several entries; their conditions need not be identical. Identical values can stand only once.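 Step 1: Grow cells in 96-well plates. Step 2: Expose to compound for 48 hours at 5 concentrations. Step 3: Interpolate endpoints linearly; if unreached, use highest concentration. Here, GI50 denotes the concentration required for 50% inhibition of growth. TGI is the concentration that stops growth completely.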
# What was measured:
# Test in all cases: NCI anticancer screen, dose series, 48 h
# [1] = system: SW-620 colon
# [2] = system: HCT-116 colon
# [3] = system: MCF7 breast
# [4] = system: NCI-H522 lung
# [5] = system: LOX IMVI melanoma
# [6] = system: RPMI-8226 leukemia
# [7] = system: NCI/ADR-RES ovarian
# [8] = system: SK-MEL-2 melanoma
# [9] = system: SK-MEL-28 melanoma
# [10] = system: MDA-MB-435
Compound,GI50 [1] [µM],TGI [1],GI50 [2] [µM],TGI [2],GI50 [3] [µM],TGI [3] [µM],GI50 [4] [µM],TGI [4] [µM],GI50 [5] [µM],TGI [5] [µM],GI50 [6] [µM],TGI [6] [µM],GI50 [7] [µM],TGI [7],GI50 [8],TGI [8],GI50 [9],TGI [9] [µM],GI50 [10] [µM],TGI [10]
O=C(CC1(O)C(=O)Nc2ccc(Cl)cc21)c1ccc(C(=O)NCC2CCC3(CC2)OOC2(CCCCC2)OO3)cc1 (centres undefined),2.13,4.61 µM,2.71,12.3 µM,2.37,9.88,0.292,1.37,0.301,8.85,1.73,4.72,11.8,45.5 µM,2.16 µM,4.78 µM,3.33 µM,17.9,,
CCN(CC)C(=O)Cc1[nH][nH]c(=O)c1C(=O)N(CC)CC,,> 100 µM,,> 100 µM,,,,> 100,,> 100,,> 100,,,,> 100 µM,,> 100,,
CCN(CC)c1ccc(N=Nc2ccc(-c3nc4cccnc4s3)cc2)cc1,,> 100 µM,,> 100 µM,,,,> 100,,,,> 100,,,,> 100 µM,,> 100,,
COc1ccc([C@@H]2[C@@H](Cl)C(=O)N2c2cc(OC)c(OC)c(OC)c2)cc1C,0.0462,34.5 µM,0.0401,11.4 µM,0.0435,> 100,0.0224,0.0717,0.0692,17,0.0641,28.3,0.0426,> 100 µM,0.0496 µM,19.6 µM,11 µM,> 100,,
O=C(CC(C(=O)c1ccsc1)c1cccs1)c1cccs1 (centres undefined),,> 100 µM,,> 100 µM,,,,> 100,,> 100,,> 100,,,,> 100 µM,,> 100,,
COc1ccccc1NC(=O)c1sc2ncn(CCOc3ccccc3)c(=O)c2c1C,2.33,> 50 µM,1.99,> 50 µM,3.55,> 50,1.8,> 50,1.52,> 50,9.2,> 50,1.76,> 50 µM,3.37 µM,> 50 µM,,,,
N#Cc1c(N)oc2cc3c(C#N)c(N)oc3cc12,,> 100 µM,,,,,,> 100,,> 100,,> 100,,,,> 100 µM,,> 100,,
CC(C)(c1ccc(C=O)o1)c1ccc(C(C)(C)c2ccc(C=O)o2)o1,,> 100 µM,,> 100 µM,,,,> 100,,> 100,,,,,,> 100 µM,,> 100,,
CCOC(=O)C1=C(C)N(NC(=O)Nc2ccccc2)C2(N)N(NC(=O)Nc3ccccc3)C(C)=C(C(=O)OCC)C12C#N (centres undefined),,36.2 µM,,31.2 µM,,,,33.1,,34,,50.5,,,,30.2 µM,,32.1,,
CC(=O)O[C@H]1CSC[C@@H](OC(C)=O)C1[N+](=O)[O-] (some centres undefined),,74.3 µM,,> 100 µM,,,,36.8,,,,59.5,,,,66.9 µM,,69.4,,
CC(C)(C)n1cc(-c2ccnc(NCCCNS(=O)(=O)c3cccc4ccccc34)c2)c(-c2cccc(O)c2)n1,1.81,3.62 µM,1.4,2.89 µM,1.91,4.06,,,1.73,3.28,,,,,1.88 µM,4.06 µM,1.67 µM,3.24,1.76,3.37 µM
C(=C\c1ccc2ccccc2c1Nc1ccccc1)/c1ccccc1,,> 100 µM,,46.4 µM,,,,> 100,,> 100,,> 72.5,,,,> 100 µM,,> 88.2,,
NC1(C(=O)O)CCC(C(=O)O)CC1 (centres undefined),,> 100 µM,,> 100 µM,,,,> 100,,> 100,,> 100,,,,> 100 µM,,> 100,,
Nc1ncc(CN2CCCC2)c(-c2ccccc2O)n1,,> 750 µM,,> 750 µM,,,,> 750,,> 750,,> 750,,,,,,> 750,,
COC1=CC(=O)[C@@]2(C)C(C)[C@H](c3ccccc3)[C@H]2C1=O (some centres undefined),,> 100 µM,,,,,,> 100,,> 100,,> 100,,,,> 100 µM,,> 100,,
COc1cc(C(=O)/C=C/c2c[nH]c3ccccc23)cc(OC)c1OC,< 0.0123,> 100 µM,< 0.0175,16.9 µM,0.0857,15,< 0.0107,0.0391,0.0508,16.1,0.0319,2.82,< 0.0144,33.6 µM,0.0392 µM,19.2 µM,0.494 µM,41.9,,
O=C1OCc2nc3c(c(-c4ccccc4C(F)(F)F)c21)C(=O)OC3,,> 100 µM,,> 100 µM,,,,> 100,,> 100,,> 100,,,,> 100 µM,,> 100,,
Cc1cc2c3ccccc3n3c2c2c1OC1(C)CCC(C2C1)C3(C)C (centres undefined),,> 25 µM,,> 25 µM,,,,> 25,,> 25,,> 25,,,,> 25 µM,,> 25,,
C=C1C(=O)C23C(O)CC4C(C)(C)CCC(O)C4(C)C2CC(OC(C)=O)C1[C@H]3O (some centres undefined),,2.53 µM,,5.88 µM,,,,0.638,,15.8,,> 32,,42.9 µM,,5.3 µM,,8.19,,21.4 µM
O=C1c2c(c3c4ccccc4n(CC4CO4)c3c3[nH]c4ccccc4c23)C(=O)N1Cc1ccccc1 (centres undefined),,> 100 µM,,> 100 µM,,,,> 100,,> 100,,> 100,,,,> 100 µM,,> 100,,
CC1(C)C2CC(=O)C1(C)C(OCc1ccccc1)C2Br (centres undefined),,47 µM and > 100 µM,,39.8 µM and > 100 µM,,> 100,,,,,,,,42.1 µM and > 100 µM,13.1 µM and > 100 µM,25.8 µM and > 100 µM,15.1 µM and > 100 µM,> 100,,> 100 µM and 84.7 µM
